Data: patent publication US20260297060A1, “COMPOUNDS FOR THE DEGRADATION OF MUTANT BRAF” (C4 THERAPEUTICS, INC., priority 2023, published 2026)

Legend:
A375-NRAS^Q61K cells = test: CTGlo Cell Viability Assay, A375-NRAS^Q61K (A375.11) cells, 96 hours; format: cell-based, human; details: Homo sapiens, 96 h, A375.11 (A375-NRAS^Q61K) cells; for Emax: lowest % viability achieved
How it was run: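 A375 cells carrying BRAF V600E and NRAS Q61K were seeded at 250 cells/well with a 10-point half-log dose series (max 10 μM final). After 96 h at 37 °C, viability was read as ATP luminescence (CellTiter-Glo), background-subtracted and normalized to DMSO (100%). GI50 from 4-parameter fit; Emax is the lowest % viability.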

[1] = tested on: A375 human melanoma xenografts; test: Example 6 efficacy study in A375 human melanoma xenografts (tumor volume, T/C, TGI); format: in vivo, BALB/c nude mice; details: p.o., QD × 21 days; for T/C / TGI / Tumor Size on PG-D21: PG-D21; for Tumor Size on PG-D21 / Tumor volume: Mean ± SEM
Experimental: For efficacy study, compounds were tested in the A375 human melanoma xenografts. Known BRAF inhibitors encorafenib, and dabrafenib were used as positive controls. Encorafenib and dabrafenib were administered to BALB/c nude mice bearing A375 tumors on PG-D1 and dosed PO daily (QD) for 3 weeks. Encorafenib was dosed at 35 mg/kg. Dabrafenib was dosed at 100 mg/kg. Compound 83, Compound 93, Compound 70, and Compound 54 were administered to BALB/c nude mice bearing A375 tumors on PG-DO and dosed PO twice per day (BID) for 3 weeks. Compound 83, Compound 93, Compound 70, and Compound 54 were dosed at 10 mg/kg.
The A375 tumor cells were maintained in vitro in DMEM medium supplemented with […] and 1% Penicillin-Streptomycin at 37° C. in an atmosphere of 5% CO2 in air. The tumor cells were routinely subcultured twice weekly. The cells growing in an exponential growth phase were harvested and counted for tumor inoculation.
Each mouse was inoculated subcutaneously at the right flank with A375 tumor cells (5×10^6) in 0.2 mL of PBS with Matrigel (PBS: Matrigel=1:1) supplemented for tumor development. Animals were grouped for the treatment on day 16 after tumor inoculation when the average tumor volume reached 221 mm^3 for efficacy study and 386 mm^3 for PKPD study. The test articles administration and the animal numbers in each group are shown in the above experimental Tables.
Prior to the onset of drug treatment, mice were measured for tumor size in two dimensions using a caliper, and the tumor volume (mm^3) was calculated using formula V=0.5 a×b^2 where a and b are the long and short diameters of the tumor in mm, respectively. Mice were randomized into different treatment groups based on the tumor volume.
The major endpoint was to see if the tumor growth could be delayed or mice could be cured. The tumor size was then used for calculations of T/C value. The T/C value (in percent) is an indication of antitumor effectiveness; T and C are the mean volumes of the treated and control groups, respectively on specified day.
TGI was calculated for each group using the formula: TGI (%)=[1−(Ti−T0)/(Ci−C0)]×100; Ti is the average tumor volume of a treatment group on a given day, T0 is the average tumor volume of the treatment group on the day of treatment start, Ci is the average tumor volume of the vehicle control group on the same day with Ti, and C0 is the average tumor volume of the vehicle group on the day of treatment start.

Compound `CO[C@@H]1CCN(S(=O)(=O)Nc2ccc(F)c(Oc3ccc4ncn(C5CC6(CCN(C7CC8(C7)CN(c7cc9c(cc7F)c(N7CCC(=O)NC7=O)nn9C)C8)CC6)C5)c(=O)c4c3)c2C#N)C1` (stereo partly drawn) [Compound 269, (3R)-N-[2-cyano-3-[3-[7-[2-[3-(2,4-dioxohexahydropyrimidin-1-yl)-5-fluoro-1-methyl-indazol-6-yl]-2-azaspiro[3.3]heptan-6-yl]-7-azaspiro[3.5]nonan-2-yl]-4-oxo-quinazolin-6-yl]oxy-4-fluoro-phenyl]-3-methoxy-pyrrolidine-1-sulfonamide] has a GI50 (A375-NRAS^Q61K cells) of less than 1000 nM and an Emax (A375-NRAS^Q61K cells) of less than 50%.

In the case of `COC1CN(S(=O)(=O)Nc2ccc(F)c(Oc3ccc4ncn(C5CC6(CCN(C7CC8(C7)CN(c7cc9c(cc7F)c(N7CCC(=O)NC7=O)nn9C)C8)CC6)C5)c(=O)c4c3)c2C#N)C1` (stereo not drawn) [Compound 280, N-[2-cyano-3-[3-[7-[2-[3-(2,4-dioxohexahydropyrimidin-1-yl)-5-fluoro-1-methyl-indazol-6-yl]-2-azaspiro[3.3]heptan-6-yl]-7-azaspiro[3.5]nonan-2-yl]-4-oxo-quinazolin-6-yl]oxy-4-fluoro-phenyl]-3-methoxy-azetidine-1-sulfonamide], the GI50 (A375-NRAS^Q61K cells) is reported as less than 1000 nM and the Emax (A375-NRAS^Q61K cells) is reported as less than 50%.

In the case of `CC(C)(C)c1nc(-c2cccc(NS(=O)(=O)c3c(F)cccc3F)c2F)c(-c2ccnc(N)n2)s1` [Dabrafenib, dabrafenib, reference compound], the T/C ([1]; 100 mg/kg) is reported as 26.6%, the TGI ([1]; 100 mg/kg) is reported as 81.5% and the “Tumor Size on PG-D21” value ([1]; 100 mg/kg) is reported as 588 ± 244 mm^3. For the same compound, the “Tumor volume” value ([1]; 100 mg/kg, day 0) was 221 ± 10 mm^3, the “Tumor volume” value ([1]; 100 mg/kg, day 4) was 288 ± 19 mm^3 and the “Tumor volume” value ([1]; 100 mg/kg, day 7) was 348 ± 33 mm^3. For the same compound, the “Tumor volume” value ([1]; 100 mg/kg, day 11) was 383 ± 64 mm^3, the “Tumor volume” value ([1]; 100 mg/kg, day 14) was 407 ± 122 mm^3 and the “Tumor volume” value ([1]; 100 mg/kg, day 18) was 454 ± 159 mm^3. For the same compound, the “Tumor volume” value ([1]; 100 mg/kg, day 21) was 588 ± 244 mm^3.

With `COC(=O)N[C@@H](C)CNc1nccc(-c2cn(C(C)C)nc2-c2cc(Cl)cc(NS(C)(=O)=O)c2F)n1` [Encorafenib, encorafenib, reference compound] the T/C ([1]; 35 mg/kg) was 10.6%, the TGI ([1]; 35 mg/kg) was 99.3% and the “Tumor Size on PG-D21” value ([1]; 35 mg/kg) was 235 ± 68 mm^3. The “Tumor volume” value ([1]; 35 mg/kg, day 0) was 221 ± 10 mm^3, the “Tumor volume” value ([1]; 35 mg/kg, day 4) was 260 ± 22 mm^3 and the “Tumor volume” value ([1]; 35 mg/kg, day 7) was 278 ± 17 mm^3. For the same compound, the “Tumor volume” value ([1]; 35 mg/kg, day 11) was 238 ± 18 mm^3, the “Tumor volume” value ([1]; 35 mg/kg, day 14) was 209 ± 31 mm^3 and the “Tumor volume” value ([1]; 35 mg/kg, day 18) was 196 ± 47 mm^3. The “Tumor volume” value ([1]; 35 mg/kg, day 21) was 235 ± 68 mm^3.
